In PubChem BioAssay (NCI):
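Five concentrations, 48 hours, 96-well plates. GI50 = concentration required for 50% inhibition of growth. At the TGI there is no net growth.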

Tests used:
Assay in all cases: growth of human tumour cells (NCI), 48 h
CCRF-CEM leukemia = test system: CCRF-CEM leukemia
DLD-1 colon = test system: DLD-1 colon
DMS 114 small cell lung = test system: DMS 114 small cell lung
HOP-18 NSCLC = test system: HOP-18 NSCLC
KM20L2 colon = test system: KM20L2 colon
M19-MEL melanoma = test system: M19-MEL melanoma
NCI-H522 lung = test system: NCI-H522 lung
NCI/ADR-RES ovarian = test system: NCI/ADR-RES ovarian
SK-MEL-28 melanoma = test system: SK-MEL-28 melanoma
SK-OV-3 ovarian = test system: SK-OV-3 ovarian
SNB-75 CNS = test system: SNB-75 CNS
SNB-78 CNS = test system: SNB-78 CNS
786-0 renal = test system: 786-0 renal
HS 578T breast = test system: HS 578T breast
SR leukemia = test system: SR leukemia

SMILES	TGI (CCRF-CEM leukemia) [µM]	TGI (DLD-1 colon) [µM]	TGI (DMS 114 small cell lung) [µM]	TGI (HOP-18 NSCLC) [µM]	TGI (KM20L2 colon) [µM]	TGI (M19-MEL melanoma) [µM]	TGI (NCI-H522 lung) [µM]	TGI (NCI/ADR-RES ovarian) [µM]	TGI (SK-MEL-28 melanoma) [µM]	TGI (SK-OV-3 ovarian) [µM]	TGI (SNB-75 CNS) [µM]	TGI (SNB-78 CNS) [µM]	TGI (786-0 renal) [µM]	TGI (HS 578T breast) [µM]	GI50 (DLD-1 colon) [µM]	GI50 (KM20L2 colon) [µM]	GI50 (SNB-78 CNS) [µM]	TGI (SR leukemia) [µM]	GI50 (HS 578T breast) [µM]	GI50 (SK-MEL-28 melanoma) [µM]
Oc1c2c(c3c4c1N=CC=4CCN=3)C1(C=C(Br)C(O)C(Br)=C1)CCN2 (stereo unspecified)	5.79	3.95	0.718	23.5	3.26	1.05	0.818	2.77	21.5	26	24.5	10.4	–	–	–	–	–	–	–	–
CCN(CC)CCOCC1CCCN2CCCCC12 (stereo unspecified)	> 100	–	–	–	–	–	–	> 100	> 100	> 100	> 100	–	> 100	> 100	–	–	–	–	–	–
CCCC(=O)[O-].CCCC(=O)[O-].N.N.N.N.[Co+3].[O-][Cl+3]([O-])([O-])[O-]	> 100	> 100	–	–	> 100	–	> 100	–	> 100	> 100	> 100	> 100	> 100	–	> 100	> 100	> 100	–	–	–
Cc1n(-c2ccccc2)c2c([n+]1Cc1ccc([N+](=O)[O-])cc1)C(=O)c1ccccc1C2=O	5.46	19.4	1.49	17.7	9.84	2.93	1.67	5.61	3.59	12.5	13.1	6.88	14.7	5.51	–	–	–	4.9	–	–
Cc1cc(=O)[nH]c(NN2C(Cl)C(=O)C2c2c(O)ccc3ccccc23)n1 (stereo unspecified)	> 100	–	56	53.5	66.8	> 100	–	–	44.1	–	39.2	70.4	–	–	–	–	–	72.7	–	–
COc1cc(O)c2c(c1O)C(=O)c1cc(C)ncc1C2=O	> 50	> 50	> 50	> 50	> 50	23.8	> 50	–	> 50	35.7	> 50	> 50	> 50	–	–	–	–	–	–	–
CCCCCCCSCC1OC(n2cnc3c(N)ncnc32)C(O)C1O (stereo unspecified)	> 100	28.7	71.1	68.2	> 100	–	–	–	> 100	–	> 100	> 100	–	–	–	–	–	43.4	–	–
C[N+]1(CCCC[N+]2(C)CCCCCCC2)CCCCCCC1	> 100	–	–	–	–	–	> 100	> 100	> 100	–	–	–	> 100	60.4	–	–	–	> 100	–	–
NS(=O)(=O)c1ccc(N=Nc2nc3[nH]cnc(=S)c3[nH]2)cc1	4.21	–	–	–	–	–	10.2	14.5	> 100	–	> 100	–	> 100	> 87	–	–	–	1.11	–	–
Cc1n(CC(C)C)c2c([n+]1CC(=O)c1ccc([N+](=O)[O-])cc1)C(=O)c1ccccc1C2=O	4.94	0.797	–	0.202	0.113	< 0.0175	< 0.01	2.91	0.902	0.869	0.641	0.107	–	–	–	–	–	–	–	–
OCCN1CCN(c2nc(Nc3ccc(-c4nc5ccccc5[nH]4)cc3)c3cn[nH]c3n2)CC1	–	–	–	–	–	–	–	–	3.05	–	–	–	–	5.33	–	–	–	–	2.15	1.65
Nc1nc(Sc2ccc([N+](=O)[O-])cn2)c2[nH]cnc2n1	> 41.5	–	–	–	–	–	40.2	30.3	> 100	> 51.1	63.9	–	> 52.8	77.8	–	–	–	> 100	–	–
C=CCCCCn1c2ccccc2c2c(C)c3c[n+](C)ccc3c(C)c21	2.02	2.52	0.811	1.15	2.31	1.41	0.608	–	1.41	3.2	–	–	–	–	–	–	–	1.1	–	–
NC(N)=NCCCC(NCc1c2ccccc2[n+]([O-])c2ccccc12)C(=O)O (stereo unspecified)	83.3	> 100	> 100	> 100	> 100	–	> 100	–	> 100	> 100	88.7	> 100	> 100	–	–	–	–	–	–	–
Clc1ccc2c(Cl)nc(-c3ccccc3)nc2c1	> 100	> 100	74	–	68	> 100	–	–	> 100	62.3	> 100	91	–	–	–	–	–	> 100	–	–
